Results as given in patent publication US11332459B2 (TEIJIN PHARMA LIMITED, priority 2017, dated 2022).
Where a name gives a salt, the structure may show the parent alone.

Target: T1, human TRPC6 (Homo sapiens, UniProt Q9Y210)
T1 construct: expressed in transfected cells
T1 sequence (Q9Y210 1-931): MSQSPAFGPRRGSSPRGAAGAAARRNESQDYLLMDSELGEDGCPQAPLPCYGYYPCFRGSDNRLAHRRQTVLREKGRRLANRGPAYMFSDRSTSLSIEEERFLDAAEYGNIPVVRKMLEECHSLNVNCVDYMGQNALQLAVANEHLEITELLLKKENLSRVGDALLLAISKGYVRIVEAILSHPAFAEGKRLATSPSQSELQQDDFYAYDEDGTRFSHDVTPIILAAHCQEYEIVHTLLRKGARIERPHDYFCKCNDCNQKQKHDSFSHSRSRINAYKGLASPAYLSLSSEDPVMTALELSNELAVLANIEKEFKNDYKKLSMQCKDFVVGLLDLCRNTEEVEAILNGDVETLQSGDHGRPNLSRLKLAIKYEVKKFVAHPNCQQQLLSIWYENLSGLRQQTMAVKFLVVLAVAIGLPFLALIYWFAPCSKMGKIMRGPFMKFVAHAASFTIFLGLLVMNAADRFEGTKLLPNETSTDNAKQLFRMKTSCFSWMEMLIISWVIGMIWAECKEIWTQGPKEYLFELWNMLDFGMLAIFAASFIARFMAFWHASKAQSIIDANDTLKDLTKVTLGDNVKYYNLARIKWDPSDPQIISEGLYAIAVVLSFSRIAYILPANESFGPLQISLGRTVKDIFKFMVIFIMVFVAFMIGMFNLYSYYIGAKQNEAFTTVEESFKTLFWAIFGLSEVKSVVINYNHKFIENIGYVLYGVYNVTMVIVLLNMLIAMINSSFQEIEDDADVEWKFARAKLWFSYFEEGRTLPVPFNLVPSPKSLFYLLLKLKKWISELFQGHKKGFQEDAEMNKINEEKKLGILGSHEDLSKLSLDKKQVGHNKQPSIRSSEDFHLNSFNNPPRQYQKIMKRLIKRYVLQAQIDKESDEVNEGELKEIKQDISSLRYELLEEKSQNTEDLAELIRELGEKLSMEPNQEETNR
Test: TRPC6 calcium flux assay (FLIPR, OAG-stimulated calcium influx)
Assay type: cell-based
Settings: HEK293 cells stably transfected with human TRPC6, read-out: hTRPC6 Potency
In short: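 HEK293 cells stably expressing human TRPC6, loaded with calcium dye 90–120 min at RT, then given compound for 25 min before OAG (50 uM final, 0.5% DMSO) in HEPES buffer pH 7.2 with 2 mM CaCl2. Background-subtracted FLIPR peak over 180 s normalized to OAG vs buffer; IC50 from dose plot.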

| SMILES | IC50 |
| --- | --- |
| CNC(=O)C1CN(C(=O)Cn2c(N3CC[C@@H](F)[C@H](N)C3)nc3cc(F)c(F)cc32)CCO1 (stereo partly drawn) [Example 644, 4-(2-(2-((3R,4R)-3-amino-4-fluoropiperidin-1-yl)-5,6-difluoro-1H-benzo[d]imidazol-1-yl)acetyl)-N-methylmorpholine-2-carboxamide] | 1910 nM |
| N#Cc1ccc(Cn2c(N3CC[C@@H](F)[C@H](N)C3)nc3cc(C(F)(F)F)cnc32)nc1 [Example 519, 6-((2-((3R,4R)-3-amino-4-fluoropiperidin-1-yl)-6-(trifluoromethyl)-3H-imidazo[4,5-b]pyridin-3-yl)methyl)nicotinonitrile] | 476 nM |
| Cc1cc2c(cc1Cl)nc(N1CC[C@@H](F)[C@H](N)C1)n2Cc1ccc(C#N)cn1 [Example 113, 6-((2-((3R,4R)-3-amino-4-fluoro-1-piperidinyl)-5-chloro-6-methyl-1H-benzimidazol-1-yl)methyl)-3-pyridinecarbonitrile] | 0.286 nM |
| N[C@@H]1CN(c2nc3ccc(Cl)cc3n2CC(=O)N2CCOCC2)CC[C@H]1F [Example 495, 2-(2-((3R,4R)-3-amino-4-fluoropiperidin-1-yl)-6-chloro-1H-benzo[d]imidazol-1-yl)-1-morpholinoethanone] | 12.7 nM |
| N#Cc1ccc(Cn2c(N3CCC(F)(F)[C@H](N)C3)nc3c(F)cc(F)cc32)nc1 [Example 87, (R)-6-((2-(3-amino-4,4-difluoropiperidin-1-yl)-4,6-difluoro-1H-benzo[d]imidazol-1-yl)methyl)nicotinonitrile hydrochloride] | 0.931 nM |
| N#Cc1ccc2nc(N3CCC(F)(F)[C@H](N)C3)n(Cc3ncc(Cl)cn3)c2c1 [Example 41, (R)-2-(3-amino-4,4-difluoropiperidin-1-yl)-1-((5-chloropyrimidin-2-yl)methyl)-1H-benzo[d]imidazole-6-carbonitrile] | 18.4 nM |
| N#Cc1ccc(Cn2c(N3CC[C@@H](O)[C@H](N)C3)nc3ccc(Cl)cc32)nc1 [Example 152, 6-((2-((3R,4R)-3-amino-4-hydroxypiperidin-1-yl)-6-chloro-1H-benzo[d]imidazol-1-yl)methyl)nicotinonitrile] | 67.7 nM |
| N#Cc1ccc(Cn2c(N3CC[C@H](CN)C3)nc3ccccc32)nc1 [Example 80, (R)-6-((2-(3-(aminomethyl)pyrrolidin-1-yl)-1H-benzo[d]imidazol-1-yl)methyl)nicotinonitrile hydrochloride] | 79.3 nM |
| N#Cc1ccc(Cn2c(N3CC[C@@H]4OCCN[C@H]4C3)nc3ccccc32)nc1 [Example 132, 6-((2-((4aS,8aS)-hexahydro-2H-pyrido[4,3-b][1,4]oxazin-6(5H)-yl)-1H-benzimidazol-1-yl)methyl)-3-pyridinecarbonitrile] | 42 nM |
| N[C@@H]1CN(c2nc3cc(F)c(F)cc3n2Cc2cccc3ncccc23)CC[C@H]1F [Example 260, (3R,4R)-1-(5,6-difluoro-1-(5-quinolinylmethyl)-1H-benzimidazol-2-yl)-4-fluoro-3-piperidinamine] | 376 nM |
| N#Cc1ccc2c(c1)nc(N1CC[C@@H](F)[C@H](N)C1)n2Cc1ccc(C(F)(F)F)nc1 [Example 244, 2-((3R,4R)-3-amino-4-fluoropiperidin-1-yl)-1-((6-(trifluoromethyl)pyridin-3-yl)methyl)-1H-benzo[d]imidazole-5-carbonitrile hydrochloride] | > 3750 nM |
| N[C@@H]1CN(c2nc3ccc(F)cc3n2CC(=O)NC2CCC2)CC[C@H]1F [Example 668, 2-(2-((3R,4R)-3-amino-4-fluoropiperidin-1-yl)-6-fluoro-1H-benzo[d]imidazol-1-yl)-N-cyclobutylacetamide] | 778 nM |
| COc1cc(F)cc2c1nc(N1CC[C@@H](F)[C@H](N)C1)n2CC(=O)N1CCOCC1 [Example 545, 2-(2-((3R,4R)-3-amino-4-fluoropiperidin-1-yl)-6-fluoro-4-methoxy-1H-benzo[d]imidazol-1-yl)-1-morpholinoethan-1-one] | > 3750 nM |
| CN(CC(F)(F)F)C(=O)Cn1c(N2CC[C@@H](F)[C@H](N)C2)nc2cc(F)cc(F)c21 [Example 591, 2-(2-((3R,4R)-3-amino-4-fluoropiperidin-1-yl)-5,7-difluoro-1H-benzo[d]imidazol-1-yl)-N-methyl-N-(2,2,2-trifluoroethyl)acetamide] | 1590 nM |
| C[C@H](c1cccc(Cl)c1)n1c(N2CC[C@@H](F)[C@H](N)C2)nc2cc(F)c(F)cc21 [Example 326, (3R,4R)-1-(1-((1R)-1-(3-chlorophenyl)ethyl)-5,6-difluoro-1H-benzimidazol-2-yl)-4-fluoro-3-piperidinamine] | 2930 nM |
| N[C@@H]1CN(c2nc3cc(F)c(F)cc3n2Cc2cc(Cl)ccc2OC(F)(F)F)CC[C@H]1F [Example 338, (3R,4R)-1-(1-(5-chloro-2-2-(trifluoromethoxy)benzyl)-5,6-difluoro-1H-benzimidazol-2-yl)-4-fluoro-3-piperidinamine] | > 3750 nM |
| CN(CC(F)(F)F)C(=O)Cn1c(N2CC[C@@H](F)[C@H](N)C2)nc2ccc(C(F)(F)F)cc21 [Example 554, 2-(2-((3R,4R)-3-amino-4-fluoropiperidin-1-yl)-6-(trifluoromethyl)-1H-benzo[d]imidazol-1-yl)-N-methyl-N-(2,2,2-trifluoroethyl)acetamide] | 10.9 nM |
| CC(CC#N)N(C)C(=O)Cn1c(N2CC[C@@H](F)[C@H](N)C2)nc2cc(F)c(F)cc21 (mixture of isomers) [Example 612, 2-(2-((3R,4R)-3-amino-4-fluoropiperidin-1-yl)-5,6-difluoro-1H-benzo[d]imidazol-1-yl)-N-(1-cyanopropan-2-yl)-N-methylacetamide] | 22.4 nM |
| N#Cc1ccc(Cn2c(N3CCC(F)(F)[C@H](N)C3)nc3c(Cl)cc(Cl)cc32)nc1 [Example 60, (R)-6-((2-(3-amino-4,4-difluoropiperidin-1-yl)-4,6-dichloro-1H-benzo[d]imidazol-1-yl)methyl)nicotinonitrile] | 0.261 nM |
| Cc1cc(Cn2c(N3CC[C@@H](F)[C@H](N)C3)nc3cc(F)c(F)cc32)no1 [Example 564, (3R,4R)-1-(5,6-difluoro-1-((5-methylisoxazol-3-yl)methyl)-1H-benzo[d]imidazol-2-yl)-4-fluoropiperidin-3-amine] | 29.2 nM |
| N[C@@H]1CN(c2nc3cc(F)c(F)cc3n2Cc2nnc(C(F)F)s2)CC[C@H]1F [Example 560, (3R,4R)-1-(1-((5-(difluoromethyl)-1,3,4-thiadiazol-2-yl)methyl)-5,6-difluoro-1H-benzo[d]imidazol-2-yl)-4-fluoropiperidin-3-amine] | 18.7 nM |
| N#Cc1ccc(Cn2c(N3CC[C@@H](F)[C@H](N)C3)nc3cc(C#N)ccc32)nc1 [Example 54, 2-((3R,4R)-3-amino-4-fluoropiperidin-1-yl)-1-((5-cyanopyridin-2-yl)methyl)-1H-benzo[d]imidazole-5-carbonitrile] | 5.52 nM |
| CN(CC(F)(F)F)C(=O)Cn1c(N2CC[C@@H](F)[C@H](N)C2)nc2ccc(F)cc21 [Example 457, 2-(2-((3R,4R)-3-amino-4-fluoropiperidin-1-yl)-6-fluoro-1H-benzo[d]imidazol-1-yl)-N-methyl-N-(2,2,2-trifluoroethyl)acetamide] | 13.3 nM |
| CO[C@@H]1CCN(c2nc3ccc(F)cc3n2Cc2ccc(C#N)cn2)C[C@H]1N [Example 451] | 0.613 nM |
| N[C@@H]1CN(c2nc3cc(F)c(F)cc3n2Cc2ccc(F)cn2)CC[C@@H]1F [Example 304, (3R,4S)-1-(5,6-difluoro-1-((5-fluoropyridin-2-yl)methyl)-1H-benzo[d]imidazol-2-yl)-4-fluoropiperidin-3-amine] | 52.4 nM |
| CN(CC(F)(F)F)C(=O)Cn1c(N2CC[C@@H](CN)C2)nc2ccc(F)cc21 [Example 491, (S)-2-(2-(3-(aminomethyl)pyrrolidin-1-yl)-6-fluoro-1H-benzo[d]imidazol-1-yl)-N-methyl-N-(2,2,2-trifluoroethyl)acetamide] | > 3750 nM |
| N[C@@H]1CN(c2nc3cc(F)c(F)cc3n2CC(=O)N(CCO)Cc2cccnc2)CC[C@H]1F [Example 655, 2-(2-((3R,4R)-3-amino-4-fluoropiperidin-1-yl)-5,6-difluoro-1H-benzo[d]imidazol-1-yl)-N-(2-hydroxyethyl)-N-(pyridin-3-ylmethyl)acetamide] | > 3750 nM |
| N[C@@H]1CN(c2nc3cc(F)c(F)cc3n2C2CCCN(c3ccccc3)C2=O)CC[C@H]1F (mixture of isomers) [Example 239, 3-(2-((3R,4R)-3-amino-4-fluoropiperidin-1-yl)-5,6-difluoro-1H-benzo[d]imidazol-1-yl)-1-phenylpiperidin-2-one] | 562 nM |
